# Experimental data published in patent US6559289B1, “Use of growth hormone or analogues thereof for the treatment of mammals with familial hypercholesterolemia” (Salhtech I Goteborg AB, priority 1998, dated 2003).
# “Also recorded” adds a separate entry of the source.
# Columns and labels:
# LDLRKO mice [1] = experiment: Cholestyramine, atorvastatin and GH alone and in combination: plasma cholesterol and triglycerides; format: in vivo; conditions: 6 days of treatment
# [2] = system: cholesterol 7α hydroxylase (C7αOH); experiment: Enzymatic activity of C7αOH in hepatic microsomes after GH infusion; format: in vivo, mice; conditions: for increase of C7αOH activity: GH 1 mg/kg/day, six days, hepatic microsomes
# Source text: (§1) The studies were approved by the Institutional Animal Care and Use Committee, Sweden. Altogether 75 male LDLRKO and 45 C57 BL/6J mice were purchased from Bommice, Denmark. Animals were housed under standardized conditions in groups of ten. The mice had free access to water and chow; the light cycle hours were between 6 a.m. and 6:00 p.m. At the start of the experiment, osmotic mini pumps containing GH were implanted subcutaneously under light ether anesthesia. Non-GH treated animals were sham-operated. Recombinant human GH (Genotropin®), purchased from Pharmacia & Upjohn, was infused at a rate of 1.0 mg/kg per day. After six days of infusion, animals where anesthetized with ether, and blood was collected from the eye. The mice where thereafter killed by cervical dislocation. The livers were immediately removed and when indicated, 1 g of liver was taken for subsequent preparation of microsomes for assay of enzyme activity as described below. The remaining liver was immediately frozen in liquid nitrogen and stored at −70° C.
# (§2) Hepatic microsomes were prepared by differential ultracentrifugation of liver homogenates in the absence of fluoride as previously described (Angelin et al 1984, J Lipid Res. 25; 1159-1166, Einarsson et al. 1986, J. Lipid Res. 27; 82-88, Einarsson et al. 1989, J. Lipid Res. 30; 739-746). Microsomal HMG CoA reductase was assayed from the conversion of [^14C] HMG CoA to mevalonate, and expressed as picomoles formed per mg protein per min. The activity of C7αOH was determined from the formation of 7α-hydroxycholesterol (picomoles/mg protein/min) from endogenous microsomal cholesterol by the use of isotope dilution-mass spectrometry as described in detail. All enzyme assays were carried out in duplicate.
# (§3) The means and standard error of means from three separate pools of all animals are shown.
# LDLRKO mice [3] = experiment: FPLC size-fractionation of plasma lipoproteins after GH infusion; format: in vivo
# Method: (§4) Equal volumes of plasma from each animal were pooled (1-2 mL) and the density was adjusted to 1.21 g/mL with solid KBr. After ultracentrifugation at 10^5 g for 48 h, the supernatant was removed and adjusted with 0.15 M NaCl, 0.01% etylene diamine tetraacetic acid, (EDTA), 0.02% sodium azide, pH 7.3. An aliquot of this solution was injected on a 54×1.8 cm superose 6B column after filtration through a Millipore […] HA filter, 2-mL fractions were collected.
# (§5) FIGS. 2 and 3 show the lipoprotein patterns in the four groups of animals described in legend to FIG. 1. Equal volumes of plasma from each animal were pooled and subjected to ultracentrifugation at density 1.21. The supernatant was thereafter separated on a Superose 6 column and fractionated.
# C57BL/6J mice [4] = experiment: as above; format: in vivo; conditions: pooled plasma, first experiment
# Method: as §4, §5
# LDL receptors = experiment: Ligand blot assay of hepatic LDL-receptors after GH treatment; format: in vivo; conditions: C57BL/6J mice, pooled livers
# Method: Ligand blot assay of LDL-receptors was performed using ^125I-labeled rabbit β-migrating very low density lipoprotein (VLDL), as described previously (Rudling et al 1992. PNAS 89; 6983-6987). Membrane proteins were separated by SDS-PAGE (6% poly-acrylamide). After electrotransfer of proteins to nitrocellulose filters and subsequent incubation ^125I-β-VLDL filters were exposed onto DuPont X-ray film at −70° C.
# The absence of LDL receptors in LDLRKO animals was confirmed by ligand blot of hepatic membranes obtained from pooled livers from each animal group, using β-VLDL as ligand (not shown). The expression of LDL receptors in C57BL/6J mice was not altered by GH treatment.
# LDLRKO mice [5] = experiment: GH infusion for six days: total plasma cholesterol, triglycerides and total hepatic cholesterol; format: in vivo
# Source text: as §1
# (§6) The total hepatic cholesterol was determined, following extraction and subsequent drying under nitrogen from liver samples, as described (Rudling M. J. Lipid Res. 33: 493-50 1992). Total hepatic and plasma cholesterol and plasma triglycerides were assayed using commercial available methods (Boehringer-Mannheim, Mannheim, Germany).
# (§7) Infusion of GH to C57BL/6J and LDLRKO mice. Two sets of ten animals of each strain were continuously infused at a rate of 1 mg/kg/d. After six days of treatment, animals were killed and plasma and livers were collected.
# (§8) To confirm this surprising finding of a plasma cholesterol lowering effect of GH in LDLR deficient animals with pronounced hypercholesterolemia, the previous experiment was repeated. In addition, we wanted to also determine the enzymatic activities of 3-hydroxy-3-methyl-glutaryl coenzyme A, (HMG CoA) reductase, and cholesterol 7α hydroxylase, (C7αOH), being the rate limiting steps in the synthesis of cholesterol and bile acids, respectively. Animals received the same dose of GH that was infused for six days.
# (§9) FIG. 1 is a graph that depicts total plasma cholesterol, triglycerides and total hepatic cholesterol in normal (C57 BL) and LDLRKO (KO) mice±GH (1 mg/kg/day) for 6 days. Each group consisted of 10 animals. Bars indicate SEM.
# (§10) Each group consisted of 10 animals. Bars indicate SEM.
# C57BL/6J mice [6] = experiment: as above; format: in vivo; conditions: GH 1 mg/kg/d infusion
# Source text: as §1, §6, §7, §8, §9, §10
# C7αOH mRNA = C7αOH mRNA levels by solution hybridization after GH infusion; format: in vivo, mice; conditions: GH treatment, liver
# Method: (§11) Total nucleic acids were extracted from a sample of liver from each individual and incubated with the respective complementary radio-labeled cRNA probe.
# HMG CoA reductase = experiment: Enzymatic activity of HMG CoA reductase in hepatic microsomes after GH infusion; format: in vivo, mice; conditions: for increase of HMG CoA reductase activity: GH 1 mg/kg/day, six days, hepatic microsomes
# Source text: as §1, §2, §3
# HMG CoA reductase mRNA = HMG CoA reductase mRNA levels by solution hybridization after GH infusion; format: in vivo, mice; conditions: liver
# Method: as §11
# [7] = LDLRKO mice, GH 1 mg/kg/d infusion, six days
# [8] = repeated experiment, same GH dose, six days (FIG. 4)
substance,measurement,setting,value
cholestyramine [reference compound],effect on plasma cholesterol (in words),LDLRKO mice [1]; drug alone,no effects
"GH: Recombinant human GH (Genotropin), purchased from Pharmacia & Upjohn, infused at 1.0 mg/kg per day",increase of C7αOH activity,[2]; C57/BL6J mice,115%
same,increase of C7αOH activity,[2]; LDLRKO mice,46%
same,enzymatic activity of C7αOH (in words),"[2]; LDLRKO mice, GH infusion",stimulated; also recorded: normalized
same,enzymatic activity of C7αOH (in words),"[2]; normal mice, GH treatment",stimulated
same,reduction of lipoprotein cholesterol by FPLC size fraction,"LDLRKO mice [3]; LDLRKO mice, pooled plasma, first experiment (FIG. 2)",within all size fractions
same,reduction in lipoprotein triglycerides by FPLC size fraction,"LDLRKO mice [3]; LDLRKO mice, pooled plasma, first experiment (FIG. 3)",only within VLDL particles
same,plasma lipoprotein cholesterol by FPLC,LDLRKO mice [3]; repeated experiment (FIG. 5),"lowered plasma lipoprotein cholesterol, particularly within VLDL and LDL particles"
same,lipoprotein triglycerides by FPLC,LDLRKO mice [3]; repeated experiment (FIG. 6),not only reduced among VLDL particles but also within LDL and HDL particles
same,lipoprotein triglycerides by FPLC size fraction,C57BL/6J mice [4],increased triglycerides within VLDL particles
same,expression of LDL receptors (ligand blot of hepatic membranes),LDL receptors,not altered
same,reduced plasma cholesterol level,"LDLRKO mice [5]; LDL-receptor knockout mice, GH infusion",30-40%
same,total hepatic cholesterol,LDLRKO mice [5]; [7],slight reduction
same,total plasma triglycerides,LDLRKO mice [5]; [7],slight but not significant reduction
same,total plasma cholesterol,"LDLRKO mice [5]; LDLRKO mice, GH 1 mg/kg/d infusion, six days, first experiment",clearly reduced
same,reduction of total plasma cholesterol versus first experiment,LDLRKO mice [5]; [8],slightly less pronounced
same,"total plasma cholesterol and triglycerides, and total hepatic cholesterol versus first experiment",LDLRKO mice [5]; [8],practically identical results
same,total plasma cholesterol,C57BL/6J mice [6]; C57BL/6J (normal) mice,no significant effect; also recorded: no reduction
same,total plasma triglycerides,C57BL/6J mice [6]; C57BL/6J mice,unaltered
same,total hepatic cholesterol,C57BL/6J mice [6]; normal C57BL/6J mice,slightly increased
same,reduction of plasma cholesterol,LDLRKO mice [1]; groups of 5,10%
same,reduction of plasma triglycerides,LDLRKO mice [1]; groups of 5,approx. 20%
same,reduction in C7αOH mRNA level,C7αOH mRNA; C57/BL6J mice,50%
same,increase of C7αOH mRNA level,C7αOH mRNA; LDLRKO mice,170%
same,increase of HMG CoA reductase activity,HMG CoA reductase; C57/BL6J mice,53%
same,increase of HMG CoA reductase activity,HMG CoA reductase; LDLRKO mice,113%
same,enzymatic activity of HMG CoA reductase (in words),"HMG CoA reductase; LDLRKO mice, GH infusion",increased the activity to the same level as found in normal C57BL/6J animals; also recorded: normalized
same,HMG CoA reductase mRNA levels,HMG CoA reductase mRNA; C57/BL6J mice,no effect
same,increase of HMG CoA reductase mRNA levels,HMG CoA reductase mRNA; LDLRKO mice,20%
